Test results published in patent US20070117743A1, “New antitumoral compounds” (priority 2003, published 2007).
Where a SMILES comes first, the peptide text is derived from it. Bridges are numbered along the chain shown (N, C = ends). [ ]: non-standard residue; d: D form. The star is where a group is joined. d(aIle) = CC[C@H](C)[C@@H](N)C(=O)O; d(aThr) = C[C@@H](O)[C@@H](N)C(=O)O; Hexanoyl(5-Me) = CC(C)CCCC(=O)*; Orn = NCCC[C@H](N)C(=O)O; Dhb = C/C=C(\N)C(=O)O

Columns and labels:
Format in all cases: cell-based, human
Settings in all cases: 48 hours exposure
IGROV-1 = experiment: SRB colorimetric assay of cell growth and viability, IGROV-1
PANC-1 = experiment: SRB colorimetric assay of cell growth and viability, PANC-1
SK-MEL-28 = experiment: SRB colorimetric assay of cell growth and viability, SK-MEL-28
LoVo = experiment: SRB colorimetric assay of cell growth and viability, LoVo
K-562 = experiment: SRB colorimetric assay of cell growth and viability, K-562
SK-BR-3 = experiment: SRB colorimetric assay of cell growth and viability, SK-BR-3
A-549 = experiment: SRB colorimetric assay of cell growth and viability, A-549
HeLa = experiment: SRB colorimetric assay of cell growth and viability, HeLa
HT-29 = experiment: SRB colorimetric assay of cell growth and viability, HT-29
LNCaP = experiment: SRB colorimetric assay of cell growth and viability, LNCaP
DU-145 = experiment: SRB colorimetric assay of cell growth and viability, DU-145
HeLa-APL = experiment: SRB colorimetric assay of cell growth and viability, HeLa-APL
IGROV-ET = experiment: SRB colorimetric assay of cell growth and viability, IGROV-ET

## C/C=C1\NC(=O)[C@H](Cc2ccccc2)NC(=O)[C@@H](C(C)C)NC(=O)[C@@H]([C@@H](C)CC)NC(=O)[C@H](NC(=O)[C@H](NC(=O)[C@H](CCCN)NC(=O)[C@H]2CCCN2C(=O)[C@H](NC(=O)[C@H](Cc2ccccc2)NC(=O)[C@@H](NC(=O)[C@H](NC(=O)CCCC(C)C)C(C)C)[C@@H](C)O)C(C)C)[C@@H](C)CC)[C@@H](C)OC(=O)[C@H](C(C)C)NC1=O [Compound 43, [Phe^11]-KF] ({Hexanoyl(5-Me)}-[dV]TF[dV][dP][Orn][d(aIle)][d(aThr)][d(aIle)][dV]F[Dhb]V; ester 8-C)
IGROV-1
  GI50: 241 nM
  LC50 (concentration causing 50% net cell killing): 3.68 µM
  TGI IGROV: 7.67E−07 Molar
PANC-1
  GI50: 1790 nM
  TGI PANC-1: 4.86E−06 Molar
PANC-1; read-out: LC50 PANC-1
  CC50: 6.55 µM
SK-MEL-28
  GI50: 780 nM
  TGI MEL-28: 1.66E−06 Molar
SK-MEL-28; read-out: LC50 MEL-28
  CC50: 3.57 µM
LoVo
  GI50: 105 nM
  TGI LOVO: 2.22E−07 Molar
LoVo; read-out: LC50 LOVO
  CC50: 471 nM
K-562
  GI50: 1230 nM
  TGI K-562: 2.18E−06 Molar
K-562; read-out: LC50 K-562
  CC50: 3.85 µM
SK-BR-3
  GI50: 119 nM
  LC50: 634 nM
  TGI SK-BR-3: 2.75E−07 Molar
A-549
  TGI A-549: 1.40E−06 Molar
A-549; read-out: GI50 A-549
  GI50: 521 nM
A-549; read-out: LC50 A-549
  CC50: 3.41 µM
HeLa
  GI50: 397 nM
  TGI HELA: 1.32E−06 Molar
HeLa; read-out: LC50 HELA
  CC50: 3.95 µM
HT-29
  TGI HT-29: 2.73E−07 Molar
HT-29; read-out: GI50 HT-29
  GI50: 141 nM
HT-29; read-out: LC50 HT-29
  CC50: 531 nM
LNCaP
  TGI LN-caP: 1.97E−06 Molar
LNCaP; read-out: GI50 LN-caP
  GI50: 852 nM
LNCaP; read-out: LC50 LN-caP
  CC50: 4.55 µM
DU-145
  GI50: 476 nM
  LC50 (concentration causing 50% net cell kill): 3.22 µM
  TGI DU-145: 1.34E−06 Molar
HeLa-APL
  GI50: 793 nM
  TGI HELA-APL: 1.77E−06 Molar
HeLa-APL; read-out: LC50 HELA-APL
  CC50: 3.93 µM
IGROV-ET
  GI50: 233 nM
  TGI IGROV-ET: 6.28E−07 Molar
IGROV-ET; read-out: LC50 IGROV-ET
  CC50: 2530 nM
